Results as given in US11814444B2, “Cyclic polypeptides for PCSK9 inhibition” (Ra Pharmaceuticals, Inc., priority 2018, dated 2023).
Numbered stars: 1 amine (or outer) side, 2 acyl side, 3 side chain; on linkers, the order of the positions; unused ones are H or OH. Bridge positions count the residues as written; N and C are the ends. Square brackets hold non-standard residues; d marks the D form. Peptide text beside a SMILES is read from it. X6 = CC(=O)Oc1ccc2c(c1)CN([*:1])[C@H](C(=O)[*:2])C2; Pyridine(2,6-diCH2) = c1cc(C[*:1])nc(C[*:2])c1; Trp(7-aza) = N[C@@H](Cc1c[nH]c2ncccc12)C(=O)O; NMePhe(4-F) = CN[C@@H](Cc1ccc(F)cc1)C(=O)O; X5 = O=C([C@H](Cc1cnco1)N[*:1])[*:2]; mXylylene = c1cc(C[*:1])cc(C[*:2])c1; 2Pal = N[C@@H](Cc1ccccn1)C(=O)O; 3Pal = N[C@@H](Cc1cccnc1)C(=O)O; 4Pal = N[C@@H](Cc1ccncc1)C(=O)O; Aad = N[C@@H](CCCC(=O)O)C(=O)O; Tle = CC(C)(C)[C@H](N)C(=O)O; αMeV = CC(C)[C@](C)(N)C(=O)O; S5 = C=CCCC[C@](C)(N)C(=O)O; Nva = CCC[C@H](N)C(=O)O; Thp = NC1(C(=O)O)CCOCC1; Aib = CC(C)(N)C(=O)O; Mpa = O=C(O)CCS

Legend:
[1] = molecular target: human PCSK9 / human LDLR EGFa domain interaction (Homo sapiens, UniProt Q8NBP7); test: TR-FRET assay of inhibition of the PCSK9-LDLR protein-protein interaction; type: binding; details: 20 nM avitag-biotinylated human PCSK9, 20 nM his-tagged human LDLR EGFa domain, 2 hours, room temperature
Sequence of human PCSK9 / human LDLR EGFa domain interaction (Q8NBP7 153-692): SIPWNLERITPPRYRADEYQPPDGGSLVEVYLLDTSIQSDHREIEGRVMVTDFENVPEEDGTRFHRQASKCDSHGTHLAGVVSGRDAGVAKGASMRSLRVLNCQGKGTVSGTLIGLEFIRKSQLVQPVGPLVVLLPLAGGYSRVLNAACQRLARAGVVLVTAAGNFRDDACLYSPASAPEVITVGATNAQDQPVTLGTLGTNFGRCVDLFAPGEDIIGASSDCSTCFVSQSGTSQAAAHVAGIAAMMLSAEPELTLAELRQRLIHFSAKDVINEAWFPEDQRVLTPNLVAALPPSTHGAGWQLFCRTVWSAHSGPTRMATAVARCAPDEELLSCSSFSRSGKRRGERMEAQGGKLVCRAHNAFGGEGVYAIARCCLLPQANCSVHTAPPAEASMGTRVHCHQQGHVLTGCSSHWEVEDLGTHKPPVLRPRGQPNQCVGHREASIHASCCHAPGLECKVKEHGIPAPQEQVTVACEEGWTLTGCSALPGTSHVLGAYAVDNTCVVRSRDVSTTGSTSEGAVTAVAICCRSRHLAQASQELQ
Sequence of human PCSK9 / human LDLR EGFa domain interaction (Q8NBP7 31-152 partner limits assumed): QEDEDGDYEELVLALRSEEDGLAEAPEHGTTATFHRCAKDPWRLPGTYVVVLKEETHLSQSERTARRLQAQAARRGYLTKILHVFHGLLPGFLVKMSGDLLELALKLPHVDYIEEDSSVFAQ
Outline: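 Readout is the TR-FRET signal between europium anti-6×His on his-tagged LDLR EGFa domain and Ulight streptavidin on biotinylated PCSK9, both proteins at 20 nM and both detection reagents at 5 nM. Incubation lasted 2 hours at room temperature; compounds were run in dose-response with a 4-parameter fit.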

PCSK9 = PCSK9 (Homo sapiens, UniProt Q8NBP7); test: PCSK9 Alexa FRET Standard assay (displacement of AlexaFluor647 tagged cyclic peptide Reagent A); type: binding; details: 0.5 nM PCSK9, 20 nM AF cyclic peptide Reagent A
Sequence of PCSK9 (Q8NBP7 153-692): as the sequence (Q8NBP7 153-692) above
Protocol: A solution containing 1 nM biotinylated PCSK9+2.5 nM Lance Streptavidin Europium (Strep-Eu) was made in 50 mM HEPES pH 7.4, 0.15 M NaCl, 5 mM CaCl2), 0.01% BSA, and 0.01% Surfactant P20. A separate solution containing 40 nM of the AlexaFluor tagged cyclic peptide was made in the same buffer system. An Echo was used to transfer 0.750 ul of compound to an assay plate followed by the addition of 15 ul of PCSK9+Stept-Eu and 15 ul of AF peptide. The final assay volume was 30.750 ul containing 0.5 nM PCSK9, 1.25 nM Strep-Eu, and 20 nM AF cyclic peptide. The reaction was incubated at room temperature for at least two hours prior to fluorescence measurements using an Envision Multilabel Reader. IC50 values were determined by fitting data to a sigmoidal dose-response curve using nonlinear regression. Ki was then calculated from the IC50 and the KD of AF cyclic peptide. Counts (B-counts) of the europium-labeled PCSK9 were followed to observe if compounds were […]. A fall off of the B-counts likely indicated a false positive of inhibition. Data from this procedure was reported as “A=‘numerical value’ (nanomolar)”

SMILES	IC50 [1] [nM]	IC50 (PCSK9) [nM]
C=CCCC[C@]1(C)NC(=O)[C@H](CCC)NC(=O)[C@H](Cc2ccc(O)cc2)NC(=O)[C@H](C)NC(=O)C(C)(C)NC(=O)[C@H](Cc2c[nH]c3ncccc23)NC(=O)[C@H]([C@@H](C)O)NC(=O)[C@@H]2CCCN2C(=O)[C@H](Cc2ccc(O)cc2)NC(=O)[C@H](C(C)(C)C)NC(=O)[C@@H](NC(C)=O)CCCC(=O)NCCCC[C@@H](C(N)=O)NC1=O [Compound 053] (Ac-[Aad][Tle]YPT[Trp(7-aza)][Aib]AY[Nva][S5]K-NH2; lactam 1-12)	21000 to 50000	1000 to 21000
CCC[C@H](NC(=O)[C@@H](NC(=O)[C@@H](NC(=O)[C@H](Cc1ccc(O)cc1)NC(=O)[C@@H]1CSCc2cccc(n2)CSC[C@H](NC(=O)[C@@H](NC(=O)[C@H](CCC)NC(=O)[C@H](CCCCN)NC(C)=O)[C@@H](C)CC)C(=O)N[C@@H](Cc2ccc(O)cc2)C(=O)NCC(=O)NCC(=O)N[C@@H](CC(=O)O)C(=O)N1)[C@@H](C)CC)[C@@H](C)CC)C(N)=O [Compound 055] (Ac-K[Nva]ICYGGDCYII[Nva]-NH2; linker 4-9 via Pyridine(2,6-diCH2))	100 to 1000	1 to 100
CCC[C@@H]1NC(=O)[C@H](Cc2c[nH]c3ncccc23)NC(=O)[C@H]([C@@H](C)O)NC(=O)[C@@H]2CCCN2C(=O)[C@H](Cc2ccc(O)cc2)NC(=O)[C@H](C(C)(C)C)NC(=O)[C@@H](NC(C)=O)CCCC(=O)NCCCC[C@@H](C(N)=O)NC(=O)[C@H]([C@@H](C)O)NC(=O)[C@H](CCC)NC(=O)[C@@H]2Cc3ccc(OC(C)=O)cc3CN2C(=O)[C@H](C)NC1=O [Compound 074] (Ac-[Aad][Tle]YPT[Trp(7-aza)][Nva]A[X6][Nva]TK-NH2; lactam 1-12)	100 to 1000	100 to 1000
CCC[C@@H]1NC(=O)[C@H](Cc2c[nH]c3ncccc23)NC(=O)[C@H]([C@@H](C)O)NC(=O)[C@H](Cc2cnco2)NC(=O)[C@H](Cc2ccc(O)cc2)NC(=O)[C@H](C(C)(C)C)NC(=O)CCSCc2cccc(c2)CSC[C@@H](C(N)=O)NC(=O)[C@H]([C@@H](C)O)NC(=O)[C@H](CCC)NC(=O)[C@H](Cc2ccc(O)cc2)NC(=O)[C@H](CCC(=O)O)NC1=O [Compound 106] ([Mpa][Tle]Y[X5]T[Trp(7-aza)][Nva]EY[Nva]TC-NH2; linker 1-12 via mXylylene)	100 to 1000	1000 to 21000
CCC[C@@H]1NC(=O)[C@H](Cc2c[nH]c3ncccc23)NC(=O)[C@H]([C@@H](C)O)NC(=O)[C@H](Cc2ccncc2)NC(=O)[C@H](Cc2ccc(O)cc2)NC(=O)[C@H](C(C)(C)C)NC(=O)CCSCc2cccc(c2)CSC[C@@H](C(N)=O)NC(=O)[C@H]([C@@H](C)O)NC(=O)[C@H](CCC)NC(=O)[C@H](Cc2ccc(O)cc2)NC(=O)[C@H](CCC(=O)O)NC1=O [Compound 112] ([Mpa][Tle]Y[4Pal]T[Trp(7-aza)][Nva]EY[Nva]TC-NH2; linker 1-12 via mXylylene)	100 to 1000	100 to 1000
CCC[C@@H]1NC(=O)[C@H](Cc2c[nH]c3ncccc23)NC(=O)[C@H]([C@@H](C)O)NC(=O)[C@@H]2CCCN2C(=O)[C@H](Cc2ccc(O)cc2)NC(=O)[C@H](C(C)(C)C)NC(=O)CCSCc2cccc(c2)CSC[C@@H](C(N)=O)NC(=O)[C@H]([C@@H](C)O)NC(=O)[C@H](CCC)NC(=O)[C@H](Cc2ccc(O)cc2)NC(=O)[C@H](CCC(=O)O)NC1=O [Compound 155] ([Mpa][Tle]YPT[Trp(7-aza)][Nva]EY[Nva]TC-NH2; linker 1-12 via mXylylene)	1000 to 21000	1000 to 21000
CC(=O)N[C@H]1CSCc2cccc(c2)CSC[C@@H](C(N)=O)NC(=O)[C@H]([C@@H](C)O)NC(=O)C(C)(C)NC(=O)[C@H](Cc2ccc(O)cc2)NC(=O)[C@H](C)NC(=O)C(C)(C)NC(=O)[C@H](Cc2c[nH]c3ncccc23)NC(=O)[C@H]([C@@H](C)O)NC(=O)[C@@H]2CCCN2C(=O)[C@H](Cc2ccc(O)cc2)NC(=O)[C@H](C(C)(C)C)NC1=O [Compound 179] (Ac-C[Tle]YPT[Trp(7-aza)][Aib]AY[Aib]TC-NH2; linker 1-12 via mXylylene)	21000 to 50000	1000 to 21000
CC(=O)N[C@H]1CSCc2cccc(c2)CSC[C@@H](C(N)=O)NC(=O)[C@H]([C@@H](C)O)NC(=O)[C@](C)(C(C)C)NC(=O)[C@H](Cc2ccc(O)cc2)NC(=O)[C@H](C)NC(=O)C2(CCOCC2)NC(=O)[C@H](Cc2c[nH]c3ncccc23)NC(=O)[C@H]([C@@H](C)O)NC(=O)[C@@H]2CCCN2C(=O)[C@H](Cc2ccc(O)cc2)NC(=O)[C@H](C(C)(C)C)NC1=O [Compound 181] (Ac-C[Tle]YPT[Trp(7-aza)][Thp]AY[αMeV]TC-NH2; linker 1-12 via mXylylene)	21000 to 50000	1000 to 21000
CCC[C@@H]1NC(=O)[C@H](Cc2c[nH]c3ncccc23)NC(=O)[C@H]([C@@H](C)O)NC(=O)[C@H](Cc2c[nH]cn2)NC(=O)[C@H](Cc2ccc(O)cc2)NC(=O)[C@H](C(C)(C)C)NC(=O)CCSCc2cccc(c2)CSC[C@@H](C(N)=O)NC(=O)[C@H]([C@@H](C)O)NC(=O)[C@H](CCC)NC(=O)[C@H](Cc2ccc(F)cc2)N(C)C(=O)[C@H](CCC(=O)O)NC1=O [Compound 267] ([Mpa][Tle]YHT[Trp(7-aza)][Nva]E[NMePhe(4-F)][Nva]TC-NH2; linker 1-12 via mXylylene)		50000 to 100000

Results, then the compound that gave them:

IC50 [1] [nM]	IC50 (PCSK9) [nM]	SMILES
	100 to 1000	CCC[C@@H]1NC(=O)[C@H](Cc2ccc(O)cc2)NC(=O)[C@H](CCC(=O)O)NC(=O)C(C)(C)NC(=O)[C@H](Cc2c[nH]c3ncccc23)NC(=O)[C@H]([C@@H](C)O)NC(=O)[C@H](Cc2c[nH]cn2)NC(=O)[C@H](Cc2ccc(O)cc2)NC(=O)[C@H](C(C)(C)C)NC(=O)CCSCc2cccc(c2)CSC[C@@H](C(N)=O)NC(=O)[C@H]([C@@H](C)O)NC1=O [Compound 268] ([Mpa][Tle]YHT[Trp(7-aza)][Aib]EY[Nva]TC-NH2; linker 1-12 via mXylylene)
	50000 to 100000	CCC[C@@H]1NC(=O)[C@H](Cc2ccncc2)NC(=O)[C@H]([C@@H](C)O)NC(=O)[C@H](Cc2c[nH]cn2)NC(=O)[C@H](Cc2ccc(O)cc2)NC(=O)[C@H](C(C)(C)C)NC(=O)CCSCc2cccc(c2)CSC[C@@H](C(N)=O)NC(=O)[C@H]([C@@H](C)O)NC(=O)[C@H](CCC)NC(=O)[C@H](Cc2ccc(O)cc2)NC(=O)[C@H](CCC(=O)O)NC1=O [Compound 270] ([Mpa][Tle]YHT[4Pal][Nva]EY[Nva]TC-NH2; linker 1-12 via mXylylene)
	50000 to 100000	CCC[C@@H]1NC(=O)[C@H](Cc2ccccn2)NC(=O)[C@H]([C@@H](C)O)NC(=O)[C@H](Cc2c[nH]cn2)NC(=O)[C@H](Cc2ccc(O)cc2)NC(=O)[C@H](C(C)(C)C)NC(=O)CCSCc2cccc(c2)CSC[C@@H](C(N)=O)NC(=O)[C@H]([C@@H](C)O)NC(=O)[C@H](CCC)NC(=O)[C@H](Cc2ccc(O)cc2)NC(=O)[C@H](CCC(=O)O)NC1=O [Compound 271] ([Mpa][Tle]YHT[2Pal][Nva]EY[Nva]TC-NH2; linker 1-12 via mXylylene)
	50000 to 100000	CCC[C@@H]1NC(=O)[C@H](Cc2cccnc2)NC(=O)[C@H]([C@@H](C)O)NC(=O)[C@H](Cc2c[nH]cn2)NC(=O)[C@H](Cc2ccc(O)cc2)NC(=O)[C@H](C(C)(C)C)NC(=O)CCSCc2cccc(c2)CSC[C@@H](C(N)=O)NC(=O)[C@H]([C@@H](C)O)NC(=O)[C@H](CCC)NC(=O)[C@H](Cc2ccc(O)cc2)NC(=O)[C@H](CCC(=O)O)NC1=O [Compound 272] ([Mpa][Tle]YHT[3Pal][Nva]EY[Nva]TC-NH2; linker 1-12 via mXylylene)
